Measured values taken from patent EP2689847A1, “Methods for catalytic alkylation of nucleic acids” (Universität Basel, priority 2012, dated 2014).

Test: water solubility of α-diazocarbonyl substrates under the conditions of the oligonucleotide modification reaction
Format: physicochemical
Settings: aqueous reaction mixture, 100 mM MES buffer, pH 6.0, 50 mM α-diazocarbonyl compound
Source text: A number of a-diazocarbonyl substrates were screened as potential candidates for the target reaction of oligonucleotide modification (Table 4). […] Increasing the bulkiness of the ester moiety appeared to have a negative effect on the yields of modified oligonucleotide as for entry 2 the efficacy of modification was reduced twice in comparison to the methyl ester counterpart (entry 1) and with the compound from entry 7 only trace amounts of modified oligonucleotide were isolated.
General procedure for Rh2(OAc)4-catalyzed oligonucleotide modification using a-diazocarbonyl compounds. Typically […] reaction mixtures containing 5 mM oligonucleotide, […] Rh2(OAc)4 and 50 mM a-diazocarbonyl compound in 100 mM MES buffer, pH 6.0 were kept at 20 °C for 24-72 h. Analysis of the reaction products was carried out by micropreparative HPLC-separation of 5-ml aliquots of the reaction mixtures using method A. The collected peak fractions were further assessed by ESI-MS or MALDI TOF.

Compound	water solubility under the conditions of the analysis
COC(=O)C(=[N+]=[N-])c1ccc(CN(C)C)cc1 [Dz-1, Methyl 2-diazo-2-(4-((dimethylamino)methyl)phenyl)acetate]	sufficiently water-soluble
C#CCN1CCN(CCOCCOCCOCCN2CCN(Cc3ccc(C(=[N+]=[N-])C(=O)OC)cc3)CC2)CC1 [Dz-2, Methyl2-diazo-2-(4-((4-(2-(2-(2-(2-(4-(prop-2-yn-1-yl)piperazin-1-yl)ethoxy)ethoxy)ethoxy)ethyl)piperazin-1-yl)methyl)phenyl)acetate]	sufficiently water-soluble
CCOC(=O)C(=[N+]=[N-])c1ccc(CN(C)C)cc1 [entry 2]	sufficiently water-soluble
